According to patent US11053248B2, “[1,2,4]triazolo[1,5-a]pyrimidine compounds as PDE2 inhibitors” (Janssen Pharmaceutica NV, priority 2016, dated 2021):
Read-outs that look alike come from different tables or passages of the source.

Tests used:
[1] = target: T1, hPDE2A (Homo sapiens, UniProt O00408); test: In vitro assay PDE2A (SPA, 3H-cGMP); format: biochemical; details: for Emax: read-out: hPDE2A Emax
T1 construct: made in house; host or cells: Sf9 insect cells (baculovirus)
Procedure: Human recombinant PDE2A (hPDE2A) was expressed in Sf9 cells using a recombinant rPDE10A baculovirus construct. Cells were harvested after 48 h of infection and the hPDE2A protein was purified by metal chelate chromatography on Ni-sepharose 6FF. Tested compounds were dissolved and diluted in 100% DMSO to a concentration 100 fold of the final concentration in the assay. Compound dilutions (0.4 μl) were added in 384 well plates to 20 μl of incubation buffer (50 mM Tris pH 7.8, 8.3 mM MgCl2, 1.7 mM EGTA). 10 μl of hPDE2A enzyme in incubation buffer was added and the reaction was started by addition of 10 μl substrate to a final concentration of 10 μM cGMP and 0.01 μCi ^3H-cGMP. The reaction was incubated for 45 minutes at room temperature. […] After sedimentation of the beads during 30 minutes the radioactivity was measured in a Perkin Elmer Topcount scintillation counter and results were expressed as cpm. For blanc values the enzyme was omitted from the reaction and replaced by incubation buffer. Control values were obtained by addition of a final concentration of 1% DMSO instead of compound.

[2] = tested on: hPDE3B; test: In vitro assay PDE3 (SPA, 3H-cAMP); format: biochemical, human; set-up: hPDE3B Emax: unit not given here; details: for hPDE3B pIC50: 0.4 μM cAMP substrate
[3] = target: hPDE10A2 (Homo sapiens, UniProt Q9Y233); test: biochemical; details: for IC50: 60 nM cAMP substrate, read-out: hPDE10A2 pIC50 (converted); for Emax: read-out: hPDE10A2 Emax
Chain of hPDE10A2 (Q9Y233 267-1055): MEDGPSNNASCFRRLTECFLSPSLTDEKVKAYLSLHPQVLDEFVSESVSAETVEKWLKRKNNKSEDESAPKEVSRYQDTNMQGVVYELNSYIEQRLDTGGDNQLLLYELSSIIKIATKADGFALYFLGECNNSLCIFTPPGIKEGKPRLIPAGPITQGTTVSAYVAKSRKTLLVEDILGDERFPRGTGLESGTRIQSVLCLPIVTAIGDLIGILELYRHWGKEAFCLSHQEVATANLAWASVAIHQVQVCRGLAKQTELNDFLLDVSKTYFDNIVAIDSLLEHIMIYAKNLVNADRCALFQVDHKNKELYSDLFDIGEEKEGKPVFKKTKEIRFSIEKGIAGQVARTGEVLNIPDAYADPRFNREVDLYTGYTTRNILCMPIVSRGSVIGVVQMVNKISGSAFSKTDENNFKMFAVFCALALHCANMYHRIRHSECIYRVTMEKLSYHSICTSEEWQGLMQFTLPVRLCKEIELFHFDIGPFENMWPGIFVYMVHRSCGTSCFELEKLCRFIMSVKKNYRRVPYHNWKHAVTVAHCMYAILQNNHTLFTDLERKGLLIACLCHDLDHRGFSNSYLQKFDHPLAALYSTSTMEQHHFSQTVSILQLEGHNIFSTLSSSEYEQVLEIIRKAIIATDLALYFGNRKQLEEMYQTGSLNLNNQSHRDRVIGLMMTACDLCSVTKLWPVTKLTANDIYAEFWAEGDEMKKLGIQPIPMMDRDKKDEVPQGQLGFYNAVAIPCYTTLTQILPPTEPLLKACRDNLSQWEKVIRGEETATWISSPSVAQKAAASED
Procedure: Rat recombinant PDE10A (rPDE10A2) was expressed in Sf9 cells using a recombinant rPDE10A baculovirus construct. Cells were harvested after 48 h of infection and the rPDE10A protein was purified by metal chelate chromatography on Ni-sepharose 6FF. Tested compounds were dissolved and diluted in 100% DMSO to a concentration 100 fold of the final concentration in the assay. Human recombinant PDE10A […] was expressed in Sf9 cells using a recombinant hPDE10A baculovirus that was made and amplified in house. Cells were harvested after 72 h of infection and the hPDE10A protein was purified by metal chelate chromatography on Ni-sepharose. Compound dilutions (0.4 μl) were added in 384 well plates to 20 μl of incubation buffer (50 mM Tris pH 7.8, 8.3 mM MgCl2, 1.7 mM EGTA). […] of rPDE10A or hPDE10A enzyme in incubation buffer was added and the reaction was started by addition of 10 μl substrate to a final concentration of 60 nM cAMP and 0.008 μCi ^3H-cAMP. The reaction was incubated for 60 minutes at room temperature. […] After sedimentation of the beads during 30 minutes the radioactivity was measured in a Perkin Elmer Topcount scintillation counter and results were expressed as cpm. For blanc values the enzyme was omitted from the reaction and replaced by incubation buffer. Control values were obtained by addition of a final concentration of 1% DMSO instead of compound.

[4] = target: T2, PDE2A (Rattus norvegicus, UniProt Q01062); test: PDE2 occupancy by ex-vivo autoradiography with [3H]B-17a; format: in vivo; details: for receptor occupancy at 10 mg/kg / ED50: rat; for ED50: read-out: PDE occupancy ED50, route PO (oral), male Wistar rats, dose producing 50% occupancy
T2 construct: from tissue; host or cells: rat brain striatal sections (ex vivo)
T2 sequence (Q01062 1-928): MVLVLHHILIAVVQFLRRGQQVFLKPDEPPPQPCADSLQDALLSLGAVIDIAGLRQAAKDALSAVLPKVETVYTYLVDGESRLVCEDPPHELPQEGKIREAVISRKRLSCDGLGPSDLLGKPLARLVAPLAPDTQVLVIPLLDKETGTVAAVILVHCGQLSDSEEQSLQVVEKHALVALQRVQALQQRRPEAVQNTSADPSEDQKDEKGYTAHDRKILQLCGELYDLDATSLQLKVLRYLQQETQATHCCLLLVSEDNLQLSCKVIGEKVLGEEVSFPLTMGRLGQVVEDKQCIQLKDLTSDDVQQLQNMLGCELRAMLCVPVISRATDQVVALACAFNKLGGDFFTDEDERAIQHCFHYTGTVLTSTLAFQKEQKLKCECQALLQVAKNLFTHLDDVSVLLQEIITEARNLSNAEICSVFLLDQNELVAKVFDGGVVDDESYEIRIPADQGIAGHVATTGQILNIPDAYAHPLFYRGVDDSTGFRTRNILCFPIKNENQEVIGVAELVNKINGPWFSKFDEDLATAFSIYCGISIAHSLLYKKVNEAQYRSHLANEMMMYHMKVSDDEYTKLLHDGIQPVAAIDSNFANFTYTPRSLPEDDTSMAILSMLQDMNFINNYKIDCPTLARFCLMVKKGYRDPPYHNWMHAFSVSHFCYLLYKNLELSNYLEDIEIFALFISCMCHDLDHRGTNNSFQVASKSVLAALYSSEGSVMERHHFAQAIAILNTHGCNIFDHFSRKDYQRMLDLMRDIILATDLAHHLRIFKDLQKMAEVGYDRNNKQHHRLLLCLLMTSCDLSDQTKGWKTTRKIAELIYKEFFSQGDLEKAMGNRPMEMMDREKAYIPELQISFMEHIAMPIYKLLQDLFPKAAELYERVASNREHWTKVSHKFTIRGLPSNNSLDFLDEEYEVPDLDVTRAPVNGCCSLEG
Procedure: PDE2 Occupancy by Test Compounds Methods
Brains were immediately removed from the skull and rapidly frozen in dry-ice cooled 2-methylbutane (−40° C.).
After thawing, sections were dried under a cold stream of air and incubated for one minute with 30 nM [^3H]B-17a in Tris-HCl (50 mM, pH7.4) containing 0.3% BSA. Brain sections from drug-treated and vehicle-treated animals were incubated in parallel. […] After incubation, the excess of [^3H]B-17a was washed off in ice-cold buffer 2 times 10 minutes, followed by a quick dip in distilled water. The sections were then dried under a stream of cold air.
Brain sections were loaded in a β-imager (Biospace, Paris) for 4 h and radioactivity emerging from delineated brain area was quantified using the Beta vision program (Biospace, Paris). Specific binding was determined as the difference between total binding in the striatum and non-specific binding in the cerebellum. Percentage receptor occupancy of the drug administered to the animal corresponded to 100% minus the percentage receptor labeled in the treated animal. For the determination of ED50-values, the percentage of receptor occupancy was plotted against dose and the sigmoidal log dose-effect curve of best fit was calculated by non-linear regression analysis, using the GraphPad Prism program.

[5] = po, read-out: PDE2 occupancy at 10 mg/kg, route PO (oral), 10 mg/kg, male Wistar rats, striatum, percentage occupancy

T1 sequence (O00408 whole entry): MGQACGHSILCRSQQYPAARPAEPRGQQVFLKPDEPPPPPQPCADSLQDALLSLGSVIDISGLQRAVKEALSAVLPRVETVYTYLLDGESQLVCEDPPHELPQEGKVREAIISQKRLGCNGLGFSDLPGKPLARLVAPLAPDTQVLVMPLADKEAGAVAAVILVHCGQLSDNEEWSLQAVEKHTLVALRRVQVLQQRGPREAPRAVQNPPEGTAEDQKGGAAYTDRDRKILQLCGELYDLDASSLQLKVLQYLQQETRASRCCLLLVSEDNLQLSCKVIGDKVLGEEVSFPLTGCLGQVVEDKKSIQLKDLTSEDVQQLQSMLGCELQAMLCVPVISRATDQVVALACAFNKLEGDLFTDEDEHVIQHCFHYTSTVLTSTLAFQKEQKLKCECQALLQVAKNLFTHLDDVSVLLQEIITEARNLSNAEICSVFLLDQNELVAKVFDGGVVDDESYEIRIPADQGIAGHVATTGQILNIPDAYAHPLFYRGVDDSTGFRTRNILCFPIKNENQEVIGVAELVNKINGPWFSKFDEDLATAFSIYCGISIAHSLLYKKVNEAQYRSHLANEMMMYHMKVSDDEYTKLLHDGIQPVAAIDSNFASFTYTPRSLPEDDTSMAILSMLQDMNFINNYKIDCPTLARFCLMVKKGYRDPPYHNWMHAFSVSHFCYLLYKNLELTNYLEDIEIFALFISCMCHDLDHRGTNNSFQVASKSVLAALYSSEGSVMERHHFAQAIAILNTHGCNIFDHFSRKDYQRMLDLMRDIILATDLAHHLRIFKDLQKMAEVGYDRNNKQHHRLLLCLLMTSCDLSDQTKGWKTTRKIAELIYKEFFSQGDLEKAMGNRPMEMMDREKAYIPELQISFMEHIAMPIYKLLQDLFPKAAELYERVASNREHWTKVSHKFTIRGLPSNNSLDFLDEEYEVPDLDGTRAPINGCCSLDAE

Structure (SMILES)	IC50 [1]	Emax [1]	hPDE3B Emax [2]	hPDE3B pIC50 [2]	IC50 [3]	Emax [3]	receptor occupancy at 10 mg/kg ([4]; route PO (oral), 10 mg/kg, male Wistar rats, striatum, percentage occupancy, read-out: PDE2 occupancy at 10 mg/kg)	ED50 ([4]; po)	receptor occupancy at 10 mg/kg ([4]; sc, read-out: PDE2 occupancy at 10 mg/kg, route SC (subcutaneous), 10 mg/kg, male Wistar rats, striatum, percentage occupancy)	receptor occupancy at 10 mg/kg [4, 5]	PDE2 occupancy at 10 mg/kg ([4]; route PO (oral), 10 mg/kg, male Wistar rats, striatum, percentage occupancy)
CCCCOc1ccnc(N2CC[C@@H](C)[C@H](c3cc(C(F)F)nc4ncnn34)C2)c1 [Compound 11]	13.8 nM	99%	99	6.02	355 nM	97%					
C[C@@H]1CCN(c2cc(C#N)ccn2)C[C@H]1c1cc(C(F)F)nc2ncnn12 [Compound 22]	67.6 nM	100%	82	5.5	1150 nM	90%	0%				
C[C@@H]1CCN(c2ccc(C(F)(F)F)cn2)C[C@H]1c1cc(C(F)F)nc2ncnn12 [Compound 38]	170 nM	99%	49	<5	759 nM	92%					
C[C@@H]1CCN(c2nccc3ccccc23)C[C@H]1c1cc(C(F)F)nc2ncnn12 [Compound 7]	10.7 nM	101%	69	5.22	617 nM	98%		29 mg/kg	81%		
C[C@@H]1CCN(c2ncc(Cl)c3ccccc23)C[C@H]1c1cc(C(F)F)nc2ncnn12 [Compound 6]	8.91 nM	99%	67	5.21	417 nM	101%				3%	
Cc1cc([C@@H]2CN(c3nccc4ccc(Cl)cc34)CC[C@H]2C)n2ncnc2n1 [Compound 3]	3.02 nM	100%	88	5.49	83.2 nM	100%		2.12 mg/kg		90%	89
CC(C)Oc1cccnc1N1CC[C@@H](C)[C@H](c2cc(C(F)F)nc3ncnn23)C1.Cl [Compound 31]	257 nM	81%	27	<5	1290 nM	91%					
C[C@@H]1CCN(c2ccc(Cl)cn2)C[C@H]1c1cc(C(F)F)nc2ncnn12 [Compound 25]	83.2 nM	101%	45	<5	692 nM	92%					
Cc1cc([C@@H]2CN(c3nccc4ccccc34)CC[C@H]2C)n2ncnc2n1 [Compound 15]	17.4 nM	100%	69	5.21	162 nM	98%					
C[C@@H]1CCN(c2cccc(C#N)n2)C[C@H]1c1cc(C(F)F)nc2ncnn12 [Compound 24]	79.4 nM	100%	68	5.17	575 nM	94%					
C[C@@H]1CCN(c2ncccc2Cl)C[C@H]1c1cc(C(F)F)nc2ncnn12 [Compound 28]	110 nM	99%	50	4.96	692 nM	90%					
Cc1cccc(N2CC[C@@H](C)C(c3cc(C(F)F)nc4ncnn34)C2)n1 (stereo partly shown) [Compound 39]	145 nM	99%	58	5.13	1290 nM	87%					
C[C@@H]1CCN(c2ccc(F)cn2)C[C@H]1c1cc(C(F)F)nc2ncnn12 [Compound 36]	245 nM	100%	56	5.01	1510 nM	84%					
CC(C)Oc1cccnc1N1CC[C@H](C)[C@@H](c2cc(C(F)F)nc3ncnn23)C1.Cl [Compound 34]	2400 nM	30%	2	<5	> 10000 nM	33%					
COc1ccnc(N2CC[C@@H](C)[C@H](c3cc(C(F)F)nc4ncnn34)C2)c1OC.Cl [Compound 33]	166 nM	89%	40	<5	1700 nM	82%					
COc1cnc(N2CC[C@@H](C)[C@H](c3cc(C(F)F)nc4ncnn34)C2)c2ccccc12 [Compound 8]	10.7 nM	101%	73	5.22	1020 nM	97%					
C[C@@H]1CCN(c2nccc3ccc(F)cc23)C[C@H]1c1cc(C(F)F)nc2ncnn12 [Compound 14]	17 nM	101%	62	5.29	389 nM	98%					
FC(F)c1cc([C@H]2CC[C@H]3CC[C@@H]2N3c2c(Br)ccc3ccncc23)n2ncnc2n1 [Compound 5]	6.76 nM	100%	76	5.27	427 nM	97%					
C[C@@H]1CCN(c2cccc(C(F)(F)F)n2)C[C@H]1c1cc(C(F)F)nc2ncnn12 [Compound 26]	91.2 nM	99%	80	5.43	457 nM	95%					
C[C@@H]1CCN(c2ncc(C(F)(F)F)cc2Br)C[C@H]1c1cc(C(F)F)nc2ncnn12 [Compound 19]	30.2 nM	100%	38	<5	417 nM	96%					
